Measured values from ChEMBL document CHEMBL1134009, “The discovery of a potent, intracellular, orally bioavailable, long duration inhibitor of human neutrophil elastase--GW311616A a development candidate” (Bioorg Med Chem Lett, 2001).

What was measured:
[1] = Half life of compound was determined in dog blood; type: ADME, Canis lupus familiaris
[2] = Plasma clearance was measured in hamster at the dose of 10 mg/kg by peroral administration; type: ADME, organism-based, Cricetulus griseus; design: dose 10 mg/kg, route oral; conditions: chinese hamster, po, read-out: Clp
[3] = Plasma clearance was measured in hamster at the dose of 3 mg/kg by intravenous administration; type: ADME, organism-based, Cricetulus griseus; design: dose 3 mg/kg, route intravenous; conditions: chinese hamster, read-out: Clp
[4] = Bioavailability in hamster at a dose of 3 mg/kg by […] administration; type: ADME, organism-based, Cricetulus griseus; conditions: chinese hamster, in vivo
[5] = Bioavailability in hamster at a dose of 3 mg/kg by oral administration; type: ADME, organism-based, Cricetulus griseus; conditions: chinese hamster, in vivo
[6] = Half life of compound was determined in hamster blood; type: ADME, tissue-based, Cricetulus griseus; conditions: chinese hamster
[7] = Half life of compound was determined in rat blood; type: ADME
[8] = Half life of compound was determined in human blood; type: ADME, tissue-based
[9] = molecular target: T1, Neutrophil elastase (Homo sapiens, UniProt P08246); assay: Inhibitory concentration against Elastase
T1 sequence (P08246 whole entry): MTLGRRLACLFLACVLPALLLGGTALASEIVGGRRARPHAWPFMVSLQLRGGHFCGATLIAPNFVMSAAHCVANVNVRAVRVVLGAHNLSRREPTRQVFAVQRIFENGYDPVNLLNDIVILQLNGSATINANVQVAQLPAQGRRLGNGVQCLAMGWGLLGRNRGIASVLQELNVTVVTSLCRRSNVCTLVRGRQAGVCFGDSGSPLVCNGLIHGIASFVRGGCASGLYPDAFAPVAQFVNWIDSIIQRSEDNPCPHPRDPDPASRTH

[10] = system: Cricetulus griseus; assay: Percent inhibition of intraneutrophil elastase in hamster bronchoalveolar lavage 6 hours after oral administration at a dose of 2.2 mg/kg; type: organism-based; design: dose 2.2 mg/kg; conditions: Lung
[11] = system: Cricetulus griseus; assay: Percent inhibition of intraneutrophil elastase in hamster bronchoalveolar lavage 6 hours after oral administration at a dose of 20 mg/kg; type: organism-based; design: dose 20 mg/kg; conditions: Lung
[12] = Bioavailability in hamster was determined; type: ADME, organism-based, Cricetulus griseus; conditions: chinese hamster, in vivo
[13] = system: Cricetulus griseus; assay: Percent inhibition of intraneutrophil elastase in hamster bronchoalveolar lavage 6 hours after oral administration at a dose 2.2 mg/kg; type: organism-based; design: dose 2.2 mg/kg; conditions: Lung
[14] = system: Cricetulus griseus; assay: Percent inhibition of intraneutrophil elastase in hamster bronchoalveolar lavage at the dose 20 mg/kg 6 hours after oral administration.; type: organism-based; design: dose 20 mg/kg; conditions: Lung
[15] = species: Homo sapiens; assay: Residual elastase activity was evaluated after incubation with human whole blood for 30 min; type: functional; conditions: 0.5 h
[16] = system: Cricetulus griseus; assay: Percent inhibition of intraneutrophil elastase in hamster bronchoalveolar lavage 6 hours after oral administration at a dose of 0.73 mg/kg; type: organism-based; design: dose 0.73 mg/kg; conditions: Lung

Structure (SMILES) | half-life [1] | CL/F [2] | clearance [3] | bioavailability [4] | bioavailability [5] | half-life [6] | half-life [7] | half-life [8] | IC50 [9] | inhibition [10] | inhibition [11] | bioavailability [12] | inhibition [13] | inhibition [14] | IC50 [15] | inhibition [16]
CCC[C@H]1C(=O)N(S(C)(=O)=O)[C@H]2CN(C(=O)CCN3CCCCC3)C[C@H]12.Cl | 3.5 h | 140 mL/min/kg | 140 mL/min/kg | 49% | 49% | 1.4 h | 0.3 h | 3.7 h | 120 nM | 4% | 75% |  |  |  |  | 
CC(C)[C@H]1C(=O)N(S(C)(=O)=O)[C@H]2CN(C(=O)CCN3CCCCC3)C[C@H]12.Cl | > 6 h | 60 mL/min/kg | 60 mL/min/kg |  |  | > 6 h | 3.5 h | > 6 h | 242 nM |  |  | 70% | 20% | 88% |  | 
CC(C)[C@H]1C(=O)N(S(C)(=O)=O)[C@H]2CN(C(=O)/C=C/CN3CCCCC3)CC12 (stereo not given in full) |  |  |  |  |  |  |  |  | 26 nM | 77% |  |  |  |  | 1800 nM | 33%
